{"source": "paper PMC7437366", "about": "(Biochemistry, 2010)", "key": {"[1]": {"system": "AKHR-mediated ERK1/2 activation", "format": "cell-based, Bombyx", "settings": "for Dose dependence of PKC inhibitor effect on ERK1/2 activation: inhibitor 0.03 μM to 3 μM, three independent experiments"}, "[2]": {"system": "magnolol-induced lipolysis", "settings": "MEK inhibitor; ref [57]; cited from earlier work"}, "fat body of Bombyx": {"system": "fat body of Bombyx", "experiment": "Lipolysis in the fat body of Bombyx", "settings": "MEK inhibitor treatment; preliminary experiment, data not shown"}, "[3]": {"system": "adipokinetic effect of AKH", "settings": "M. sexta, in vivo; ref [44]; cited from earlier work"}}, "note": "Where two headings read alike, the source gives them in different places.", "data": [{"smiles": "COc1cc2ncnc(Nc3cccc(Cl)c3)c2cc1OC", "note": "[AG1478]", "values": [{"measurement": "Effect on AKH-induced ERK1/2 activation, EGFR inhibitor", "setting": "[1]; AG1478 1 μM, 1 h, 37°C, AKH 5 nM, 5 min, Fig. 9, S2", "result": "no effect on ERK1/2 activation"}]}, {"smiles": "CCCCCCCCCCCCCCCCCCOCC(COP(=O)([O-])OCC[N+](C)(C)C)OC", "note": "(stereo not drawn) [ET-18-OCH3]", "values": [{"measurement": "Effect of PLC inhibitor on ERK1/2 activation", "setting": "[1]; ET-18-OCH3 100 μM, AKH 5 nM, S1", "result": "could not block the activation of ERK1/2"}]}, {"smiles": "O=C(NCCN1CCC(n2c(=O)[nH]c3ccccc32)CC1)c1cc2cc(F)ccc2[nH]1", "note": "[FIPI]", "values": [{"measurement": "Effect of PLD inhibitor on ERK1/2 activation", "setting": "[1]; FIPI 1 μM, 1 hour, AKH 5 nM, 5 min, Fig. 4B, S1", "result": "could not block the activation of ERK1/2"}]}, {"smiles": "CN(C)CCCn1cc(C2=C(c3c[nH]c4ccccc34)C(=O)NC2=O)c2ccccc21", "note": "[GF109203X]", "values": [{"measurement": "Dose dependence of PKC inhibitor effect on ERK1/2 activation", "setting": "[1]; 1 hour, AKH 5 nM, 5 min", "result": "decrease in the activation of ERK1/2 stimulated by 5 nM AKH in a dose-dependent manner"}]}, {"smiles": "CNC(=O)[C@H](Cc1c[nH]c2ccccc12)NC(=O)[C@@H](CC(=O)NO)CC(C)C", "note": "[GM6001]", "values": [{"measurement": "Effect on AKH-induced ERK1/2 activation, MMP inhibitor", "setting": "[1]; GM6001 5 μM, 1 h, 37°C, AKH 5 nM, 5 min, Fig. 9, S2", "result": "no effect on ERK1/2 activation"}]}, {"smiles": "COc1ccc2c(c1)c(C1=C(c3c[nH]c4ccccc34)C(=O)NC1=O)cn2CCCN(C)C", "note": "[Go6983]", "values": [{"measurement": "Effect on AKH-induced ERK1/2 phosphorylation, PKC inhibitor", "setting": "[1]; Go6983 3 μM, 1 h, 37°C, AKH 5 nM, 5 min, Fig. 9", "result": "significant decrease of AKH-induced phosphorylation of ERK1/2"}, {"measurement": "Dose dependence of PKC inhibitor effect on ERK1/2 activation", "setting": "[1]; 1 hour, AKH 5 nM, 5 min", "result": "decrease in the activation of ERK1/2 stimulated by 5 nM AKH in a dose-dependent manner"}]}, {"smiles": "O=S(=O)(NCCNC/C=C/c1ccc(Br)cc1)c1cccc2cnccc12", "note": "[H89]", "values": [{"measurement": "Dose dependence of inhibition of ERK1/2, PKA inhibitor", "setting": "[1]; H89 1 μM to 20 μM, 1 hour, AKH 5 nM, 5 min, mean ± S.E.M (n = 3)", "result": "Inhibition of ERK1/2 is dependent on the concentration of H89"}, {"measurement": "Effect on ERK1/2 phosphorylation, PKA inhibitor", "setting": "[1]; H89 10 μM, 1 hour preincubation, 37°C, AKH 0.1 nM to 10 nM, 5 min, mean ± S.E.M (n = 3)", "result": "significantly decreased ERK1/2 phosphorylation"}, {"measurement": "Effect on AKH-induced ERK1/2 phosphorylation, PKA inhibitor", "setting": "[1]; H89 20 μM, 1 h, 37°C, AKH 5 nM, 5 min, Fig. 9", "result": "significant decrease of AKH-induced phosphorylation of ERK1/2"}]}, {"smiles": "COc1cccc(-c2cc(=O)c3ccccc3o2)c1N", "note": "[PD98059]", "values": [{"measurement": "Effect on magnolol-induced lipolysis", "setting": "[2]", "result": "inhibited"}]}, {"smiles": "CC(C)(C)n1nc(-c2ccc(Cl)cc2)c2c(N)ncnc21", "note": "[PP2]", "values": [{"measurement": "Effect on AKH-induced ERK1/2 activation, Src inhibitor", "setting": "[1]; PP2 10 μM, 1 h, 37°C, AKH 5 nM, 5 min, Fig. 9, S2", "result": "no effect on ERK1/2 activation"}]}, {"smiles": "N#CC(=C(/N)Sc1ccccc1N)/C(C#N)=C(/N)Sc1ccccc1N", "note": "[U0126]", "values": [{"measurement": "Effect on lipolysis in the fat body of Bombyx", "setting": "fat body of Bombyx", "result": "blockade of lipolysis in the fat body of Bombyx"}, {"measurement": "Effect on AKH-induced ERK1/2 phosphorylation, MEK inhibitor", "setting": "[1]; U0126 100 nM, 1 h, 37°C, AKH 5 nM, 5 min, Fig. 9", "result": "significant decrease of AKH-induced phosphorylation of ERK1/2"}]}, {"smiles": "COc1ccc2c(c1)CC[C@@H]1[C@@H]2CC[C@]2(C)[C@@H](NCCCCCCN3C(=O)C=CC3=O)CC[C@@H]12", "note": "[U73122]", "values": [{"measurement": "Effect of PLC inhibitor on ERK1/2 activation", "setting": "[1]; U73122 10 μM, 1 hour, AKH 5 nM, 5 min, Fig. 4A, S1", "result": "could not block the activation of ERK1/2"}]}, {"smiles": "COC[C@H]1OC(=O)c2coc3c2[C@@]1(C)C1=C(C3=O)[C@@H]2CCC(=O)[C@@]2(C)C[C@H]1OC(C)=O", "note": "[Wortmanmin, wortmannin]", "values": [{"measurement": "Effect on AKH-induced ERK1/2 activation, PI3K inhibitor", "setting": "[1]; wortmannin 1 μM, 1 h, 37°C, AKH 5 nM, 5 min, Fig. 9, S2", "result": "no effect on ERK1/2 activation"}]}, {"smiles": "COC(=O)C1=C(C)NC(C)=C(C(=O)OC)C1c1ccccc1[N+](=O)[O-]", "note": "[nifedipine]", "values": [{"measurement": "Effect of Ca2+ channel inhibitors on adipokinetic effect of AKH", "setting": "[3]", "result": "effectively impair the adipokinetic effect of AKH"}]}, {"smiles": "COc1ccc(CCN(C)CCCC(C#N)(c2ccc(OC)c(OC)c2)C(C)C)cc1OC", "note": "(stereo not drawn) [verapamil]", "values": [{"measurement": "Effect of Ca2+ channel inhibitors on adipokinetic effect of AKH", "setting": "[3]", "result": "effectively impair the adipokinetic effect of AKH"}]}]}
